Assay results reported in US20210309631A1, “SALT OF CYCLOHEXANE DERIVATIVE” (priority 2018, published 2021).

Experiments:
[1] = solubility in water; type: physicochemical; details: listed as sulfate Form A
[2] = Hygroscopicity (DVS) experiment, 25° C./80% relative humidity; type: physicochemical
Method: Dynamic vapor sorption curves were collected on a DVS Intrinsic by SMS (Surface Measurement Systems).
20 mg sample of the crystal forms of the Examples and Comparative Examples are placed in the environment of 25° C./80% relative humidity for a dynamic vapor sorption (DVS) test, and the test results […] are shown in Table 5.

[3] = Plasma pharmacokinetics in SD rats after single intragastric administration (Example 7); type: in vivo; details: intragastric 1 mg/kg, Mean ± SD, non-compartmental model, listed as Sulfate
Method: The in vivo absorption process and characteristics of the free base and four salts thereof (sulfate, hydrochloride salt, phosphate, maleate) of compound (I) in rats were studied. The pharmacokinetics of a single intragastric administration of 1 mg/kg of a compound of Formula I and four salts thereof (calculated by free base concentration in salt form) were studied in SD rats.
SD rats were given a single intragastric administration of 1 mg/kg free base of Example 1 and four salts thereof (including hydrochloride salt from Example 2, sulfate from Example 3, phosphate from Example 4 and maleate from Example 5). There were 4 male rats in each group. The concentration of the compound of Formula I in plasma was determined, and the pharmacokinetic parameters were calculated according to the concentration-time curve.

[4] = In vivo individual difference analysis: individual plasma concentration versus time in rats (Example 8); design: species or system SD rats; details: intragastric 1 mg/kg, listed as Sulfate of Compound of Formula I
Method: Compound of Formula I and salts thereof (sulfate, hydrochloride salt, phosphate, maleate), supplied by Shanghai Jingxin Biopharmaceutical Co., Ltd. • Strain: SD rats; Gender: male; Body weight: about 250 grams; Source: shanghai Jiesijie Experimental Animal Co., Ltd Route: single intragastric administration; Capacity: measured in 10 mL/kg body weight Preparation: weighing appropriate amount of the free base or salt of the compound of Formula I, adding a small amount of 0.5% CMC-Na to grind, adding 0.5% CMC-Na to the volume. The concentration is measured as the base. 20 SD rats were divided into 5 groups with 4 rats in each group, fasted for 12 h and drank freely before administration. […] The blood was anticoagulated with 1% heparin, the plasma was separated by 8000 rpm centrifugation for 4 min and stored at -40° C. for testing. LC-MS/MS Method. Pharmacokinetic parameters after administration in rats were calculated using a non-compartmental model of DAS 2.0 software.

[5] = DVS, 25° C./80% relative humidity, listed as Example 3 sulfate

CN(C)C(=O)N[C@H]1CC[C@H](CCN2CCN(c3cccc4ccsc34)CC2)CC1 [Example 3, N′-[trans-4-[2-[7-(benzo[b]thiophene)-7-piperazinyl]ethyl]cyclohexyl]-N,N-dimethylurea]
solubility in water [1]: greater than 8.0 mg/ml
Hygroscopicity [2, 5]: Slight
Vapor sorption [2, 5]: 0.23%
The crystal form changes after DVS testing or not ([2]; after DVS testing): No
MRT0-∞ [3]: 2.87 ± 0.283 h
Tmax [3]: 25 ± 5.76 min
t1/2 [3]: 2.67 ± 0.267 h
Plasma Concentrations of Compound of Formula I ([4]; 5 min after administration, Mean ± SD): 2.25 ± 0.476 ng/mL
Plasma Concentrations of Compound of Formula I ([4]; 5 min after administration, rat 1♂): 1.54 ng/mL
Plasma Concentrations of Compound of Formula I ([4]; 5 min after administration, rat 2♂): 2.41 ng/mL
Plasma Concentrations of Compound of Formula I ([4]; 5 min after administration, rat 3♂): 2.56 ng/mL
Plasma Concentrations of Compound of Formula I ([4]; 5 min after administration, rat 4♂): 2.48 ng/mL
Plasma Concentrations of Compound of Formula I ([4]; 0.167 h after administration, Mean ± SD): 21.7 ± 2.45 ng/mL
Plasma Concentrations of Compound of Formula I ([4]; 0.167 h after administration, rat 1♂): 24.0 ng/mL
Plasma Concentrations of Compound of Formula I ([4]; 0.167 h after administration, rat 2♂): 18.4 ng/mL
Plasma Concentrations of Compound of Formula I ([4]; 0.167 h after administration, rat 3♂): 23.0 ng/mL
Plasma Concentrations of Compound of Formula I ([4]; 0.167 h after administration, rat 4♂): 21.3 ng/mL
Plasma Concentrations of Compound of Formula I ([4]; 0.333 h after administration, Mean ± SD): 51.2 ± 2.32 ng/mL
Plasma Concentrations of Compound of Formula I ([4]; 0.333 h after administration, rat 1♂): 50.4 ng/mL
Plasma Concentrations of Compound of Formula I ([4]; 0.333 h after administration, rat 2♂): 54.4 ng/mL
Plasma Concentrations of Compound of Formula I ([4]; 0.333 h after administration, rat 3♂): 51.0 ng/mL
Plasma Concentrations of Compound of Formula I ([4]; 0.333 h after administration, rat 4♂): 48.9 ng/mL
Plasma Concentrations of Compound of Formula I ([4]; 0.5 h after administration, Mean ± SD): 49.9 ± 10.4 ng/mL
Plasma Concentrations of Compound of Formula I ([4]; 0.5 h after administration, rat 1♂): 56.0 ng/mL
Plasma Concentrations of Compound of Formula I ([4]; 0.5 h after administration, rat 2♂): 36.0 ng/mL
Plasma Concentrations of Compound of Formula I ([4]; 0.5 h after administration, rat 3♂): 48.0 ng/mL
Plasma Concentrations of Compound of Formula I ([4]; 0.5 h after administration, rat 4♂): 59.4 ng/mL
Plasma Concentrations of Compound of Formula I ([4]; 1 h after administration, Mean ± SD): 39.2 ± 6.84 ng/mL
Plasma Concentrations of Compound of Formula I ([4]; 1 h after administration, rat 1♂): 42.6 ng/mL
Plasma Concentrations of Compound of Formula I ([4]; 1 h after administration, rat 2♂): 30.0 ng/mL
Plasma Concentrations of Compound of Formula I ([4]; 1 h after administration, rat 3♂): 38.5 ng/mL
Plasma Concentrations of Compound of Formula I ([4]; 1 h after administration, rat 4♂): 45.8 ng/mL
Plasma Concentrations of Compound of Formula I ([4]; 2 h after administration, Mean ± SD): 23.2 ± 7.54 ng/mL
Plasma Concentrations of Compound of Formula I ([4]; 2 h after administration, rat 1♂): 32.7 ng/mL
Plasma Concentrations of Compound of Formula I ([4]; 2 h after administration, rat 2♂): 14.5 ng/mL
Plasma Concentrations of Compound of Formula I ([4]; 2 h after administration, rat 3♂): 24.1 ng/mL
Plasma Concentrations of Compound of Formula I ([4]; 2 h after administration, rat 4♂): 21.3 ng/mL
Plasma Concentrations of Compound of Formula I ([4]; 4 h after administration, Mean ± SD): 7.92 ± 3.01 ng/mL
Plasma Concentrations of Compound of Formula I ([4]; 4 h after administration, rat 1♂): 10.3 ng/mL
Plasma Concentrations of Compound of Formula I ([4]; 4 h after administration, rat 2♂): 4.31 ng/mL
Plasma Concentrations of Compound of Formula I ([4]; 4 h after administration, rat 3♂): 10.5 ng/mL
Plasma Concentrations of Compound of Formula I ([4]; 4 h after administration, rat 4♂): 6.57 ng/mL
Plasma Concentrations of Compound of Formula I ([4]; 6 h after administration, Mean ± SD): 2.87 ± 1.10 ng/mL
Plasma Concentrations of Compound of Formula I ([4]; 6 h after administration, rat 1♂): 3.08 ng/mL
Plasma Concentrations of Compound of Formula I ([4]; 6 h after administration, rat 2♂): 1.35 ng/mL
Plasma Concentrations of Compound of Formula I ([4]; 6 h after administration, rat 3♂): 3.99 ng/mL
Plasma Concentrations of Compound of Formula I ([4]; 6 h after administration, rat 4♂): 3.05 ng/mL
Plasma Concentrations of Compound of Formula I ([4]; 9 h after administration, Mean ± SD): 1.15 ± 0.444 ng/mL
Plasma Concentrations of Compound of Formula I ([4]; 9 h after administration, rat 1♂): 1.30 ng/mL
Plasma Concentrations of Compound of Formula I ([4]; 9 h after administration, rat 2♂): 0.643 ng/mL
Plasma Concentrations of Compound of Formula I ([4]; 9 h after administration, rat 3♂): 1.68 ng/mL
Plasma Concentrations of Compound of Formula I ([4]; 9 h after administration, rat 4♂): 0.973 ng/mL
Plasma Concentrations of Compound of Formula I ([4]; 12 h after administration, Mean ± SD): 0.606 ± 0.221 ng/mL
Plasma Concentrations of Compound of Formula I ([4]; 12 h after administration, rat 1♂): 0.718 ng/mL
Plasma Concentrations of Compound of Formula I ([4]; 12 h after administration, rat 2♂): 0.317 ng/mL
Plasma Concentrations of Compound of Formula I ([4]; 12 h after administration, rat 3♂): 0.827 ng/mL
Plasma Concentrations of Compound of Formula I ([4]; 12 h after administration, rat 4♂): 0.561 ng/mL
Plasma Concentrations of Compound of Formula I ([4]; 24 h after administration, Mean ± SD): 0.244 ± 0.161 ng/mL
Plasma Concentrations of Compound of Formula I ([4]; 24 h after administration, rat 1♂): 0.213 ng/mL
Plasma Concentrations of Compound of Formula I ([4]; 24 h after administration, rat 2♂): 0.135 ng/mL
Plasma Concentrations of Compound of Formula I ([4]; 24 h after administration, rat 3♂): 0.148 ng/mL
Plasma Concentrations of Compound of Formula I ([4]; 24 h after administration, rat 4♂): 0.479 ng/mL
